Measured values from patent US12233129B2, “Methods and compositions for the treatment of cancer” (priority 2019, dated 2025).

Key:
Assay in all cases: Annexin V staining and flow cytometry (positive control)
Assay type in all cases: cell-based, human
Conditions in all cases: 100 nM, 24 hours
HCT-116 = system: HCT-116
Procedure: (§1) Apoptosis in cells was assessed using an Annexin V Apoptosis Detection Kit (BD Pharmingen, San Jose, CA, USA) analyzed by using a BD Accuri C6 flow cytometer according to the manufacturer's instructions.
(§2) HCT-116 or SW48 were transfected with GFP empty vector or GFP-UBXN2A using the Neon electrotransfection system (HCT-116 and SW48) or lipofectamin 2000 (CCD-118-Co), achieving around 80% transfection efficiency. Apoptosis in cells was assessed using an Annexin V Apoptosis Detection Kit (BD Pharmingen, San Jose, CA) analyzed by a BD Accuri C6 flow cytometer according to the manufacturer's instructions. In each individual experiment, GFP expressing cells were first gated and then plotted versus Annexin V positive cells. 10,000 gated events were collected per sample. An apoptotic inducer, staurosporine (Sigma), was used as a positive control in all experiments.
(§3) FIG. 12: Annexin V staining and flow cytometry is a valid assay for measurement of early apoptosis. Un-transfected CCD-18Co, HCT-116, and SW48 cells were incubated with vehicle or staurosporine, a well-known inducer of apoptosis in a wide range of cell lines, for 24 hours. Subsequently, cells were stained with BD Biosciences Cy5 Annexin V and read on an Accuri C6 flow cytometer. Panel A. The histograms show a comparison of the distribution of Annexin V positive cells in un-transfected CCD-18Co, HCT-116 and SW48 cells (no gating). […] Panel C-D: We conducted a set of IP experiments to further confirm UBXN2A can only bind to the SBD domain and not the ATP domain. HCT-116 cells were transiently transfected with SBD domain or ATP domain of mot-2. After 36 hours, cell lysates were prepared followed by immunoprecipitation using anti-UBXN2A immobilized on magnetic protein G beads. Immunoprecipitation experiments verified UBXN2A binds to the SBD domain of mot-2 (amino acid residue 432-679) in HCT-116 cells and not the ATP domain (amino acid residue 1-437). This set of immunoprecipitation experiments verified results achieved in Y2H experiments. […]

SW48 = system: SW48
Procedure: as §1, §2, §3

CCD-18Co = system: CCD-18Co
Procedure: as §1, §2, §3

Measured: apoptosis (Annexin V positive cells)

CN[C@@H]1C[C@H]2O[C@@](C)([C@@H]1OC)n1c3ccccc3c3c4c(c5c6ccccc6n2c5c31)C(=O)NC4 [staurosporine]
induce significant apoptosis: all assays above
